Legend:
[1] = target: T1, OAT2r (Rattus norvegicus, UniProt Q5RLM2); assay: intracellular glutamate content of 293 cells expressing OAT2r versus uninduced control cells; type: cell-based; conditions: n=4
T1 construct: expressed in transfected cells
T1 sequence (Q5RLM2 1-535): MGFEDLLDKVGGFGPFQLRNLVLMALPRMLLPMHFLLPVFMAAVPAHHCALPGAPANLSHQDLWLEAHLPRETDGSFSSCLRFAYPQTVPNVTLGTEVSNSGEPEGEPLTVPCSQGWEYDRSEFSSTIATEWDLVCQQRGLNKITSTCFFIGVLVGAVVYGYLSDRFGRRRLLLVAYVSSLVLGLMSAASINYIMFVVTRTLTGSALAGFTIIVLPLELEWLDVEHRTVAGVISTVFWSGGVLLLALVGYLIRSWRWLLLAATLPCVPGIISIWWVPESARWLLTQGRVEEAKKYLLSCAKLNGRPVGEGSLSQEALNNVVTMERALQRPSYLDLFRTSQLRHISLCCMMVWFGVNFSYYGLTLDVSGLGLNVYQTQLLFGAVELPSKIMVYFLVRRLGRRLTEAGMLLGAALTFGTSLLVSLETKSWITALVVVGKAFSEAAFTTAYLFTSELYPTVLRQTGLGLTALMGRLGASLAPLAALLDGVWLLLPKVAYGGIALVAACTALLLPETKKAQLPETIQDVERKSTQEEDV

[2] = target: T2, OAT2h (Homo sapiens, UniProt Q9Y694); assay: intracellular glutamate content of 293 cells expressing OAT2h versus uninduced control cells; type: cell-based; conditions: n=2
T2 construct: expressed in transfected cells; host or cells: 293 cells (HEK-293), pEBTetD/OAT2h, doxycycline-inducible
T2 sequence (Q9Y694 1-546 isoform Q9Y694-2): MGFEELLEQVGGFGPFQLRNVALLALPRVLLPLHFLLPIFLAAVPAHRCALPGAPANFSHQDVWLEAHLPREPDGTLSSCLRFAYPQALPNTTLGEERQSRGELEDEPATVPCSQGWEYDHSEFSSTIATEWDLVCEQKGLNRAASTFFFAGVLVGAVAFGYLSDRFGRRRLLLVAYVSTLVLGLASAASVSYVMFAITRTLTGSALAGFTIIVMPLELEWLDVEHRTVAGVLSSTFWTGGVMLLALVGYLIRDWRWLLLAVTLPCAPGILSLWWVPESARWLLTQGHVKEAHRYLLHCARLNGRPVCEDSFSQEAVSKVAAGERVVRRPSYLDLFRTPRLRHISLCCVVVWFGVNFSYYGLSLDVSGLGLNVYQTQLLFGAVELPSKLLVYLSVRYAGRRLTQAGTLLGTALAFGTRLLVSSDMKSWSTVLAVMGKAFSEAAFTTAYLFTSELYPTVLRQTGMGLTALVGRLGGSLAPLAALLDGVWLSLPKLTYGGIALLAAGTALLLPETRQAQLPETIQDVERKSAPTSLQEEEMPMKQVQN

## N[C@@H](CCC(=O)O)C(=O)O [glutamate]
[1]
  intracellular glutamate content versus uninduced control cells (factor f): 0.55±0.11
[2]
  intracellular glutamate content versus uninduced control cells (factor f): 0.60±0.09
